Among the test systems are M14 melanoma; HL-60(TB) leukemia; SF-539 CNS; UACC-257 melanoma; NCI-H23 lung; SK-MEL-2 melanoma; LOX IMVI melanoma; BT-549 breast; K-562 leukemia; PC-3 prostate.
Common to all, as to assay: growth of human tumour cells (NCI), 48 h

Several values for one entry are separate records, joined by “and”; a condition that tells them apart may be missing. Equal entries are not always repeated.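 How tested: cells in 96-well plates exposed to compound for 48 hours at five concentrations. GI50 = concentration required for 50% inhibition of growth. TGI marks complete inhibition of growth.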 A value given as a limit tells only on which side of the number the result lay.

`COc1ccc(C(=O)c2cc(OC)c(OC)c(OC)c2)cc1`: the TGI in the experiment with M14 melanoma is greater than 100 µM; in the experiment on HL-60(TB) leukemia, 13.2 µM; in the experiment on SF-539 CNS, 1.28 µM; with UACC-257 melanoma it was greater than 100 µM; with NCI-H23 lung, greater than 100 µM; with SK-MEL-2 melanoma, greater than 100 µM. The TGI in the experiment with LOX IMVI melanoma is greater than 82.2 µM; in the experiment on BT-549 breast it was greater than 100 µM; in the experiment with K-562 leukemia it was greater than 100 µM.

Turning to `Clc1ncnc(Cl)c1Cl`, the TGI in the experiment on M14 melanoma, in the experiment with SF-539 CNS, with NCI-H23 lung, in the experiment on LOX IMVI melanoma, in the experiment with PC-3 prostate and in the experiment on K-562 leukemia was greater than 100 µM in each case.

With `COc1cccc(C2c3cc4c(cc3OC(C)(N3CCCC3)C2C)OCO4)c1OC` (configuration not stated), the TGI turned out to be 45.5 µM with M14 melanoma; 22.8 µM in the experiment with HL-60(TB) leukemia; 64.1 µM with UACC-257 melanoma; 44.6 µM in the experiment with NCI-H23 lung; 27 µM in the experiment on SK-MEL-2 melanoma; 27 µM in the experiment on LOX IMVI melanoma. Further, the TGI came out at 41.2 µM in the experiment with PC-3 prostate, 32.6 µM in the experiment on BT-549 breast and 53.1 µM in the experiment with K-562 leukemia.

For the compound `CCCCC[C@H](O)/C=C/[C@@H]1[C@@H](C/C=C\CCCC(=O)O)[C@@H](O)C[C@H]1O`, the GI50 in the experiment on HL-60(TB) leukemia, in the experiment on SF-539 CNS, in the experiment on UACC-257 melanoma, with NCI-H23 lung, in the experiment on SK-MEL-2 melanoma and with LOX IMVI melanoma was greater than 100 µM in each case. Besides, the GI50 in the experiment on PC-3 prostate, in the experiment on BT-549 breast and in the experiment on K-562 leukemia was greater than 100 µM in each case. The TGI in the experiment with HL-60(TB) leukemia, in the experiment on SF-539 CNS, in the experiment with UACC-257 melanoma, in the experiment with NCI-H23 lung, in the experiment with SK-MEL-2 melanoma and with LOX IMVI melanoma was greater than 100 µM each time. Also, the TGI in the experiment on PC-3 prostate, in the experiment with BT-549 breast and in the experiment on K-562 leukemia was greater than 100 µM each time.

`COc1ccc(OC)c(/C=N/NC(=O)Cc2csc3nc(-c4ccc(Br)cc4)cn23)c1`: the GI50 in the experiment on M14 melanoma was 15.1 µM; in the experiment with SF-539 CNS it was 11.2 µM; in the experiment with UACC-257 melanoma it was 23.9 µM; in the experiment on NCI-H23 lung, 19.3 µM; in the experiment with SK-MEL-2 melanoma, 89.7 µM; in the experiment on LOX IMVI melanoma it was 12.6 µM. The values for the GI50 in the experiment on PC-3 prostate, in the experiment on BT-549 breast and with K-562 leukemia were 13.5 µM, 12.9 µM and 2.94 µM, respectively. The TGI with M14 melanoma was 72.1 µM; in the experiment with SF-539 CNS it was 24.4 µM; in the experiment with UACC-257 melanoma, 97.5 µM; with NCI-H23 lung it was 52.3 µM; in the experiment with SK-MEL-2 melanoma it was greater than 100 µM; with LOX IMVI melanoma it was 47.4 µM. Moreover, the TGI is 93.8 µM with PC-3 prostate, 33.6 µM in the experiment with BT-549 breast and 6.94 µM in the experiment with K-562 leukemia.

With `COc1cc(C2c3[nH]c4ccccc4c3C[C@H]3COC(=O)N23)cc(OC)c1OC` (some centres not stated), the TGI was 8.97 µM in the experiment with M14 melanoma; 0.0961 µM and < 0.01 µM in the experiment on HL-60(TB) leukemia; greater than 100 µM in the experiment with UACC-257 melanoma; greater than 100 µM in the experiment on SK-MEL-2 melanoma; 1.13 µM with K-562 leukemia. The GI50 in the experiment with HL-60(TB) leukemia, in the experiment on SF-539 CNS, with UACC-257 melanoma, with NCI-H23 lung, with SK-MEL-2 melanoma and with LOX IMVI melanoma was less than 0.01 µM each time. The GI50 in the experiment on PC-3 prostate and in the experiment on K-562 leukemia was less than 0.01 µM throughout.

Consider `COc1ccccc1NC(=O)c1sc2nc3c(cc2c1N)C(=O)CCC3`, for which the GI50 was 2.86 µM in the experiment with M14 melanoma; greater than 100 µM in the experiment on HL-60(TB) leukemia; 3.97 µM in the experiment with SF-539 CNS; 16.8 µM in the experiment with NCI-H23 lung; 1.81 µM with SK-MEL-2 melanoma; greater than 100 µM in the experiment with LOX IMVI melanoma. Further, the GI50 with BT-549 breast is 4.43 µM; in the experiment with K-562 leukemia, 1.53 µM. Also, the TGI in the experiment with M14 melanoma, in the experiment on HL-60(TB) leukemia, in the experiment with SF-539 CNS, in the experiment with NCI-H23 lung, with SK-MEL-2 melanoma and in the experiment with LOX IMVI melanoma was greater than 100 µM in each case. Moreover, the TGI in the experiment with BT-549 breast and with K-562 leukemia was greater than 100 µM throughout.

Take `O=C1C(Cl)=C(Nc2cccc(Cl)c2)C(=O)N1Cc1ccccc1`: the GI50 was 6.73 µM with M14 melanoma; 5.94 µM in the experiment with NCI-H23 lung; 21.7 µM in the experiment on SK-MEL-2 melanoma; 4.01 µM in the experiment with LOX IMVI melanoma; 3.52 µM in the experiment on PC-3 prostate; 2.9 µM in the experiment with K-562 leukemia. The TGI in the experiment on M14 melanoma was 22.5 µM; in the experiment on NCI-H23 lung, 23.4 µM; in the experiment with SK-MEL-2 melanoma it was greater than 100 µM; in the experiment on LOX IMVI melanoma it was 15.3 µM; with PC-3 prostate it was 20.1 µM; in the experiment with K-562 leukemia, greater than 100 µM.

In the case of `C=C1C(=O)O[C@H]2[C@H]1CC/C(CNC(=O)Cc1c[nH]c3ccccc13)=C\CC[C@@]1(C)O[C@@H]21`, the GI50 in the experiment with M14 melanoma was 0.641 µM; in the experiment with HL-60(TB) leukemia, 0.314 µM; in the experiment on SF-539 CNS, 1.92 µM; with NCI-H23 lung, 3.54 µM; with SK-MEL-2 melanoma, 6.46 µM; in the experiment with LOX IMVI melanoma, 0.355 µM. Moreover, the figures for the GI50 in the experiment on PC-3 prostate, with BT-549 breast and in the experiment with K-562 leukemia were 6.36 µM, 3.04 µM and 0.337 µM, respectively. Besides, the TGI in the experiment with M14 melanoma stood at 9.8 µM; with HL-60(TB) leukemia, 1.02 µM; in the experiment with SF-539 CNS it was 9.1 µM; with NCI-H23 lung, 18.6 µM; in the experiment on SK-MEL-2 melanoma, 22.2 µM; in the experiment with LOX IMVI melanoma, 1.54 µM. The TGI in the experiment with PC-3 prostate amounted to 21.1 µM; in the experiment on BT-549 breast, 15.8 µM; with K-562 leukemia it was 11.1 µM.

With `FC(F)(F)c1nc(N2CCCC2)ncc1-c1nnnn1-c1ccc(Cl)cc1`, the GI50 with M14 melanoma was 20.2 µM; in the experiment with SF-539 CNS it was 39.8 µM; in the experiment with UACC-257 melanoma, 7.11 µM; in the experiment on NCI-H23 lung, 20 µM; with SK-MEL-2 melanoma it was 18 µM; in the experiment with LOX IMVI melanoma it was 15.4 µM. In addition, the GI50 in the experiment with PC-3 prostate is 16 µM; in the experiment with BT-549 breast, 31 µM; in the experiment with K-562 leukemia, 3 µM. Moreover, the TGI is 55.3 µM in the experiment on M14 melanoma; greater than 100 µM with SF-539 CNS; 69.5 µM with UACC-257 melanoma; 51.8 µM in the experiment on NCI-H23 lung; greater than 100 µM with SK-MEL-2 melanoma; 49.5 µM in the experiment on LOX IMVI melanoma. Also, the TGI with PC-3 prostate is 82.2 µM; in the experiment with BT-549 breast, greater than 100 µM; in the experiment on K-562 leukemia, 22.6 µM.

The record behind these values is PubChem BioAssay (NCI).
